PubChem BioAssay (NCI)
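Five compound concentrations were applied to cells in 96-well plates for 48 hours; endpoints were derived by simple linear interpolation of the resulting dose-response curve. Here, GI50 denotes the concentration required for 50% inhibition of growth. Definition used: TGI = concentration required for complete inhibition of growth.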

How the values were obtained:
Experiment in all cases: NCI-60 cell line screen, 48 h
ACHN renal = test system: ACHN renal
OVCAR-4 ovarian = test system: OVCAR-4 ovarian
A498 renal = test system: A498 renal
NCI-H522 lung = test system: NCI-H522 lung
RXF 393 renal = test system: RXF 393 renal
COLO 205 colon = test system: COLO 205 colon
EKVX NSCLC = test system: EKVX NSCLC
UACC-257 melanoma = test system: UACC-257 melanoma
SR leukemia = test system: SR leukemia
RPMI-8226 leukemia = test system: RPMI-8226 leukemia

SMILES	TGI (ACHN renal)	TGI (OVCAR-4 ovarian)	TGI (A498 renal)	TGI (NCI-H522 lung)	TGI (RXF 393 renal)	TGI (COLO 205 colon)	TGI (EKVX NSCLC)	TGI (UACC-257 melanoma)	TGI (SR leukemia)	TGI (RPMI-8226 leukemia)	GI50 (ACHN renal)	GI50 (OVCAR-4 ovarian)	GI50 (A498 renal)	GI50 (NCI-H522 lung)	GI50 (RXF 393 renal)	GI50 (COLO 205 colon)	GI50 (EKVX NSCLC)	GI50 (RPMI-8226 leukemia)	GI50 (UACC-257 melanoma)	GI50 (SR leukemia)
CN(C(=O)/C=C/c1ccccc1)C1C2CN3CCC(O2)C13 (configuration not stated)	> 100 µM	> 100 µM	> 100 µM	> 100 µM	> 100 µM	> 100 µM	> 100 µM	> 100 µM	–	–	–	–	–	–	–	–	–	–	–	–
O=C(/C=C/c1ccccc1)Oc1cccc2cccnc12	> 100 µM	27.6 µM	–	5.31 µM	> 85.4 µM	21.1 µM	> 68.2 µM	18.2 µM	> 100 µM	> 100 µM	–	–	–	–	–	–	–	–	–	–
COC(=O)C1=CO[C@@H](OC2CC(CO)C(O)C(O)C2O)[C@@H]2[C@@H](C)[C@@H](OC(=O)/C=C/c3ccccc3)[C@@H](O)[C@H]12 (some centres not stated) (tested in a mixture with another compound)	> 100 µM	> 100 µM	> 100 µM	> 100 µM	–	> 100 µM	> 100 µM	> 100 µM	> 100 µM	> 100 µM	–	–	–	–	–	–	–	–	–	–
O=C1/C(=C/c2ccc([N+](=O)[O-])cc2)CN(C(=O)CCN2CCC(=NO)CC2)C/C1=C\c1ccc([N+](=O)[O-])cc1	2.46 µM	5.36 µM	3.95 µM	3.28 µM	3.14 µM	5.93 µM	10.1 µM	7.97 µM	–	1.6 µM	0.893 µM	1.31 µM	1.75 µM	0.86 µM	1.49 µM	2.33 µM	2.3 µM	0.368 µM	2.43 µM	–
O=C(O)CCNS(=O)(=O)c1ccc(NC(=O)c2ccccc2)cc1	> 100 µM	> 100 µM	> 100 µM	> 100 µM	> 100 µM	> 100 µM	> 100 µM	> 100 µM	–	> 100 µM	–	–	–	–	–	–	–	–	–	–
N#C[Se]Cc1cc(-c2ccccc2)n(-c2ccc(S(N)(=O)=O)cc2)n1	4.22 µM	8.16 µM	–	5.55 µM	1.92 µM	3.61 µM	12.6 µM	6.63 µM	6.13 µM	5.02 µM	1.98 µM	2.61 µM	–	2.14 µM	0.542 µM	1.93 µM	0.688 µM	1.9 µM	2.21 µM	1.37 µM
c1cc[c]([Sn][c]2ccccc2)cc1	69.8 µM	55.2 µM	–	32.7 µM	36.5 µM	59.4 µM	> 61.2 µM	> 72.9 µM	45.3 µM	49.2 µM	27.2 µM	24 µM	–	14.1 µM	12.4 µM	24.3 µM	28.3 µM	19.8 µM	29.6 µM	18.6 µM
CCCN1C(=O)NC(=O)C(CC)(N2C(=O)c3c(F)c(F)c(F)c(F)c3C2=O)C1=O (configuration not stated)	3.69 µM	4.83 µM	11.6 µM	3.34 µM	4.45 µM	3.29 µM	6.62 µM	8.63 µM	–	3.14 µM	1.9 µM	2.22 µM	3.93 µM	1.32 µM	2.28 µM	1.74 µM	2.33 µM	0.596 µM	2.99 µM	–
CC1=C([Se]CC(OC(=O)CC[Se]c2ccccc2)C(=O)NC(C)(C)C)C(=O)c2ccccc2C1=O (configuration not stated)	3.69 µM	3 µM	6.42 µM	3.34 µM	–	3.13 µM	3.8 µM	2.95 µM	3.37 µM	–	1.86 µM	1.61 µM	2.82 µM	1.67 µM	–	1.6 µM	1.73 µM	–	1.57 µM	0.938 µM
COc1ccc(C2=Nn3c(nnc3-c3cc(Cl)cc(Cl)c3Cl)SC2)cc1	> 100 µM	> 100 µM	> 100 µM	2.51 µM	–	7.15 µM	> 46.1 µM	> 95.3 µM	–	> 100 µM	0.859 µM	0.805 µM	0.583 µM	0.256 µM	–	0.792 µM	0.622 µM	0.627 µM	0.362 µM	0.826 µM
CC[O-].CC[O-].O=C([CH-]C(=O)c1ccccc1)CCCCCCCCC(=O)[CH-]C(=O)c1ccccc1.[Ti+4]	> 100 µM	> 100 µM	> 100 µM	> 100 µM	> 100 µM	> 100 µM	> 100 µM	> 100 µM	–	> 100 µM	> 100 µM	78.8 µM	> 100 µM	> 100 µM	45 µM	> 100 µM	> 100 µM	> 100 µM	> 100 µM	–
COC(=O)c1sc(C(=O)OC)c2c1CS(=O)C2	–	> 100 µM	> 100 µM	> 100 µM	> 100 µM	> 100 µM	> 100 µM	> 100 µM	–	> 100 µM	–	–	–	–	–	–	–	–	–	–
CCSCCCSCCSCC	–	> 100 µM	–	> 100 µM	–	> 100 µM	> 100 µM	> 100 µM	–	–	–	–	–	–	–	–	–	–	–	–
CC1=C(C(=O)Nc2ccccc2C)C(c2ccc(Cl)cc2)C(C(=O)Nc2ccccc2C)=C(C)N1	> 100 µM	> 100 µM	–	> 100 µM	> 100 µM	> 100 µM	> 100 µM	> 100 µM	> 100 µM	> 100 µM	–	–	–	–	–	–	–	–	–	–
O=C(N/N=C/c1ccccc1O)N/N=C/c1ccccc1O	> 100 µM	> 100 µM	> 100 µM	> 100 µM	> 100 µM	> 100 µM	> 100 µM	> 100 µM	–	> 100 µM	–	–	–	–	–	–	–	–	–	–
CC(=O)c1c(O)c(C)c(O)c(Cc2c(O)c3c(c(C(=O)/C=C/c4ccccc4)c2O)OC(C)(C)C=C3)c1O	34.3 µM	29.4 µM	6.71 µM	11.5 µM	–	3.95 µM	12.9 µM	7.16 µM	–	> 100 µM	–	–	–	–	–	–	–	–	–	–
C/C=C/C(C#N)O[Si](C)(C)C (configuration not stated)	> 100 µM	> 100 µM	> 100 µM	> 100 µM	> 100 µM	> 100 µM	> 100 µM	> 100 µM	–	–	–	–	–	–	–	–	–	–	–	–
O=C(COc1ccccc1Cl)N1N=C(c2ccc(Cl)cc2)CC1(O)c1ccccc1 (configuration not stated)	> 100 µM	> 100 µM	–	> 100 µM	–	> 100 µM	–	> 100 µM	> 100 µM	> 100 µM	–	–	–	–	–	–	–	–	–	–
